Test results reported in article PMC4676015, “Variant fatty acid-like molecules Conjugation, novel approaches for extending the stability of therapeutic peptides” (Scientific Reports, 2015).

Tests used:
[1] = target: T1, DPP IV enzyme (Homo sapiens, UniProt P27487); experiment: Stability against DPP IV proteolysis with or without HSA; type: in vitro ADME; conditions: for detectability of full-length peptide at 24 h: DPP IV 0.1 mg/ml, pH 7.0, in the presence of human serum albumin (2%), peptide 1 mg/ml; for detectability of full-length peptide at 24 h / AUC0–24 h, amount of undigested GLP-1 fragments compared with wild-type GLP-1 / AUCGLP-1(7–37) in proteolysis solution compared to native GLP-1: 37 °C, GLP-1 (7–37) ELISA; for AUC0–24 h, amount of undigested GLP-1 fragments compared with wild-type GLP-1 / AUCGLP-1(7–37) in proteolysis solution compared to native GLP-1: DPP IV proteolysis solution, P < 0.01; for AUC0–24 h, amount of undigested GLP-1 fragments compared with wild-type GLP-1: 0-24 h; for degradation rate against DPP IV compared with compounds 6 and 21, respectively: DPP IV proteolysis, same carbon chain length without free carboxyl group as comparator
T1 construct: purchased Sigma-Aldrich
T1 sequence (P27487 whole entry, species assumed, the tested form may be a part): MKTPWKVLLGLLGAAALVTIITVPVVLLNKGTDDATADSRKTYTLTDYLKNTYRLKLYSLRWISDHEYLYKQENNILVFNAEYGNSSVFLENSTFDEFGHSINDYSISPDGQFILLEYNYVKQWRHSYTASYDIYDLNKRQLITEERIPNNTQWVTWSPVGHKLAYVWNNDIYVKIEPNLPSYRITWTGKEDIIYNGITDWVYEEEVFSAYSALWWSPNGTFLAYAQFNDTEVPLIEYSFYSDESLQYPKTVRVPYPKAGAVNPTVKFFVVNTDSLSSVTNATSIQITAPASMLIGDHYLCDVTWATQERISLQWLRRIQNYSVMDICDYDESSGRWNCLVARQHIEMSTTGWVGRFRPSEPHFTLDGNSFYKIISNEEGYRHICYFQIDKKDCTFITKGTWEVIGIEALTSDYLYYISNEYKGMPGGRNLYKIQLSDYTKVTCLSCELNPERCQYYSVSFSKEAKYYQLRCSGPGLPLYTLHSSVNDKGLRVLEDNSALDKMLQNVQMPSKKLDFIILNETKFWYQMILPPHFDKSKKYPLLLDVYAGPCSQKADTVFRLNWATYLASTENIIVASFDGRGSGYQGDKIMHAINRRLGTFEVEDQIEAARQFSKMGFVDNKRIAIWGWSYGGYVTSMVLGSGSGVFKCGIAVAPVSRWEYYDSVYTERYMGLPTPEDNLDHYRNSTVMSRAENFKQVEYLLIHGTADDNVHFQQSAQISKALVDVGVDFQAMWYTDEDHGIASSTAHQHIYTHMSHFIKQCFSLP

[2] = target: T2, GLP-1 receptor (GLP-1R) (Rattus norvegicus, UniProt P32301); experiment: GLP-1 receptor binding assay (cellular ELISA)
T2 construct: endogenous in cells; host or cells: rat INS-1 cells
T2 sequence (P32301 22-463): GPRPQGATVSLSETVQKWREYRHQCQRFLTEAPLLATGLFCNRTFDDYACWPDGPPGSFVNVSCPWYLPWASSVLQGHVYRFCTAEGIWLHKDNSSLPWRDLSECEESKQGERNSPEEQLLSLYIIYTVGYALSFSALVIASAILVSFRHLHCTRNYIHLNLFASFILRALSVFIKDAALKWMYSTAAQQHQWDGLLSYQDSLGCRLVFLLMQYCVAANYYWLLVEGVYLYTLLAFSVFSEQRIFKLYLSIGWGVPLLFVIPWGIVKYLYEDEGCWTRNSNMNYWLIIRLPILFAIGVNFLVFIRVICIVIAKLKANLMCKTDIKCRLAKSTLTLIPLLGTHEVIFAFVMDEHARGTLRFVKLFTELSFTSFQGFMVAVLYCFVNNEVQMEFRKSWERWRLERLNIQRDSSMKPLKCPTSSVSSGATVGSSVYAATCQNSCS
In short: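 Cells were fixed with 4% paraformaldehyde, quenched with 2% glycine (pH 7.5), then incubated with peptides for 2 h at 37 °C, washed and blocked with 5% BSA. Absorbance was read at 450 nm. Kd was fitted from peptide concentration versus absorbance.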

[3] = Blood retention time measurement; conditions: 500 μg/kg s.c., Wistar rats, n = 5, GLP-1 (7–37) ELISA; for increase of circulating amount (AUC GLP-1 (7-37)) compared with native GLP-1: 0.5-96 h
[4] = test system: Wistar rats; experiment: Single-dose glucoregulatory assay (glucose tolerance test); type: in vivo; conditions: calculated from the single dose glucose tolerance test in rats
Procedure: In this assay, the derivatives were administered once, and the blood glucose levels were monitored over 120 h. It was presumed that the apparent half-lives of the derivatives could be obtained by this single-dose glucose tolerance test, which would be beneficial for the determination of the administration frequency in future long-term glucose tolerance tests. Each derivative (300 μg/kg body weight) was subcutaneously injected into fasting male Wistar rats (n = 7 per group) 30 min prior to glucose administration. GLP-1 and saline were injected into the control animals. Rats were given 2 g glucose/kg body weight via intraperitoneal injections. Blood was drawn from the tail vein, and glucose levels were measured using a glucometer 30 min after glucose administration. Chronic glucose injections (2 g/kg body weight) were administered 30 min prior to each blood glucose measurement time point during the 120-h experimental period.

[5] = test system: Wistar rats; experiment: Toxicity study of compound 24 in Wistar rats (blood biochemistry, haematology); type: in vivo; conditions: Wistar rats and Kunming mice, GLP guideline of China
Procedure: Wistar rats (n = 8) and Kunming mice (n = 30) were employed in this study to investigate the acute toxicity of compound 24. Compound 24 was intraperitoneally administered with three doses of 5, 15 and 50 mg/kg/2 days for 30 days. Controls received a similar volume of sodium dihydrogen phosphate. At the end of the experimental period, overnight fasted animals were sacrificed by cervical decapitation under light ether anesthesia and blood was collected, serum was separated by centrifuging at 3,000 rpm for 10 min. The serum was used for the assay of the biochemical parameters using Chemistry Analyzer […] (Vital, Netherlands).

[6] = cited from earlier work

| Structure (SMILES) | detectability of full-length peptide at 24 h [1] | AUC0–24 h, amount of undigested GLP-1 fragments compared with wild-type GLP-1 [1] | AUCGLP-1(7–37) in proteolysis solution compared to native GLP-1 [1] | degradation rate against DPP IV compared with compounds 6 and 21, respectively [1] | Kd [2] [nM] | increase of circulating amount (AUC GLP-1 (7-37)) compared with native GLP-1 [3] [fold] | blood retention / serum level behaviour [3] | observed half-life [4] [h] | acute toxicity and blood biochemistry tests [5] | stability (half-life) of native GLP-1 ([6]; degradation by DPP-IV, reference not given) [min] | renal clearance ([6]; in vivo) |
| --- | --- | --- | --- | --- | --- | --- | --- | --- | --- | --- | --- |
| CC[C@H](C)[C@H](NC(=O)[C@H](Cc1ccccc1)NC(=O)[C@H](CCC(=O)O)NC(=O)[C@H](CCCCN)NC(=O)[C@H](C)NC(=O)[C@H](C)NC(=O)[C@H](CCC(N)=O)NC(=O)CNC(=O)[C@H](CCC(=O)O)NC(=O)[C@H](CC(C)C)NC(=O)[C@H](Cc1ccc(O)cc1)NC(=O)[C@H](CO)NC(=O)[C@H](CO)NC(=O)[C@@H](NC(=O)[C@H](CC(=O)O)NC(=O)[C@H](CO)NC(=O)[C@@H](NC(=O)[C@H](Cc1ccccc1)NC(=O)[C@@H](NC(=O)CNC(=O)[C@H](CCC(=O)O)NC(=O)[C@H](C)NC(=O)[C@@H](N)Cc1c[nH]cn1)[C@@H](C)O)[C@@H](C)O)C(C)C)C(=O)N[C@@H](C)C(=O)N[C@@H](Cc1c[nH]c2ccccc12)C(=O)N[C@@H](CC(C)C)C(=O)N[C@H](C(=O)N[C@@H](CC(=O)NCCCCCCCCCCCC(=O)O)C(=O)NCC(=O)N[C@@H](CCCNC(=N)N)C(=O)NCC(=O)O)C(C)C [compound 22] | still detectable at 24 h | approximately 3.5 fold | significantly increased | significantly lower degradation rates | 21.1 ± 2.34 | 2.6 | extended the stabilities in vivo |  |  |  |  |
| CC[C@H](C)[C@H](NC(=O)[C@H](Cc1ccccc1)NC(=O)[C@H](CCC(=O)NCCCCCCCCCCCC(=O)O)NC(=O)[C@H](CCCCN)NC(=O)[C@H](C)NC(=O)[C@H](C)NC(=O)[C@H](CCC(N)=O)NC(=O)CNC(=O)[C@H](CCC(=O)O)NC(=O)[C@H](CC(C)C)NC(=O)[C@H](Cc1ccc(O)cc1)NC(=O)[C@H](CO)NC(=O)[C@H](CO)NC(=O)[C@@H](NC(=O)[C@H](CC(=O)O)NC(=O)[C@H](CO)NC(=O)[C@@H](NC(=O)[C@H](Cc1ccccc1)NC(=O)[C@@H](NC(=O)CNC(=O)[C@H](CCC(=O)O)NC(=O)[C@H](C)NC(=O)[C@@H](N)Cc1c[nH]cn1)[C@@H](C)O)[C@@H](C)O)C(C)C)C(=O)N[C@@H](C)C(=O)N[C@@H](Cc1c[nH]c2ccccc12)C(=O)N[C@@H](CC(C)C)C(=O)N[C@H](C(=O)N[C@@H](CCCCN)C(=O)NCC(=O)N[C@@H](CCCNC(=N)N)C(=O)NCC(=O)O)C(C)C [compound 24] | still detectable at 24 h | approximately 3.5 fold | significantly increased | significantly lower degradation rates | 17.6 ± 1.76 | 2.7 |  | 9.6 | no toxicity was observed |  |  |
| CC[C@H](C)[C@H](NC(=O)[C@H](Cc1ccccc1)NC(=O)[C@H](CCC(=O)O)NC(=O)[C@H](CCCCN)NC(=O)[C@H](C)NC(=O)[C@H](C)NC(=O)[C@H](CCC(N)=O)NC(=O)CNC(=O)[C@H](CCC(=O)NCCCCCCCCCCCC(=O)O)NC(=O)[C@H](CC(C)C)NC(=O)[C@H](Cc1ccc(O)cc1)NC(=O)[C@H](CO)NC(=O)[C@H](CO)NC(=O)[C@@H](NC(=O)[C@H](CC(=O)O)NC(=O)[C@H](CO)NC(=O)[C@@H](NC(=O)[C@H](Cc1ccccc1)NC(=O)[C@@H](NC(=O)CNC(=O)[C@H](CCC(=O)O)NC(=O)[C@H](C)NC(=O)[C@@H](N)Cc1c[nH]cn1)[C@@H](C)O)[C@@H](C)O)C(C)C)C(=O)N[C@@H](C)C(=O)N[C@@H](Cc1c[nH]c2ccccc12)C(=O)N[C@@H](CC(C)C)C(=O)N[C@H](C(=O)N[C@@H](CCCCN)C(=O)NCC(=O)N[C@@H](CCCNC(=N)N)C(=O)NCC(=O)O)C(C)C [compound 23] | still detectable at 24 h |  | significantly increased |  | 24.3 ± 1.96 |  |  |  |  |  |  |
| CC[C@H](C)[C@H](NC(=O)[C@H](Cc1ccccc1)NC(=O)[C@H](CCC(=O)O)NC(=O)[C@H](CCCCN)NC(=O)[C@H](C)NC(=O)[C@H](C)NC(=O)[C@H](CCC(N)=O)NC(=O)CNC(=O)[C@H](CCC(=O)O)NC(=O)[C@H](CC(C)C)NC(=O)[C@H](Cc1ccc(O)cc1)NC(=O)[C@H](CO)NC(=O)[C@H](CO)NC(=O)[C@@H](NC(=O)[C@H](CC(=O)O)NC(=O)[C@H](CO)NC(=O)[C@@H](NC(=O)[C@H](Cc1ccccc1)NC(=O)[C@@H](NC(=O)CNC(=O)[C@H](CCC(=O)O)NC(=O)[C@H](C)NC(=O)[C@@H](N)Cc1c[nH]cn1)[C@@H](C)O)[C@@H](C)O)C(C)C)C(=O)N[C@@H](C)C(=O)N[C@@H](Cc1c[nH]c2ccccc12)C(=O)N[C@@H](CC(C)C)C(=O)N[C@H](C(=O)N[C@@H](CCCCN)C(=O)NCC(=O)N[C@@H](CCCN=C(N)N)C(=O)NCC(=O)O)C(C)C [GLP-1, glucagon-like peptide-1] |  |  |  |  |  |  |  |  |  | 3 to 5 | less than 10 min |
